Laboratory results from article PMC12067093, “Discovery and optimisation of a covalent ligand for TRIM25 and its application to targeted protein ubiquitination” (Chemical Science, 2025).

Assays:
TRIM25 PRYSPRY [1] = target: T1, TRIM25 PRYSPRY (Homo sapiens, UniProt Q14258); assay: Kinetic characterisation of covalent labelling by intact protein LCMS (kinact/KI); format: binding; conditions: TRIM25 PRYSPRY 0.5 μM, 4 °C
T1 construct: His6-TEV (cleaved yes); made in house; host or cells: Sf9 insect cells (baculovirus)
Procedure: 8 were characterised by kinetic reaction monitoring by intact protein LCMS. 0.5 µM
10 dilution series (final compound concentrations 100 µM (only for fragments 1 – 8),
12 and 1% DMSO-only control also used). Assays were performed in technical duplicates
Protein and compounds were incubated at 4 °C, in 25 mM HEPES
15 pH 7.5, 50 mM NaCl buffer, with each timepoint and replicate in a separate well.
18 measurement were saved with each reading and used for kinetic calculations.
19 protein masses were recorded, deconvoluted and percentage labelling values
20 extracted in the same way as described above. Percentage labelling values were
21 plotted against time in Prism 10 (GraphPad), and curves fitted separately for each
22 replicate to a one-phase association model with constraints Y0 = 0, and plateau = 100.
23 Observed rate constants (k obs, h-1, generated in Prism 10 as K values) were then
26 of two or three replicates to a straight line model with constraint Y-intercept = 0.
27 gradient of these plots (converted from µM-1h-1 to M-1s-1) gives the pseudo-first order
28 rate parameter, kinact/K I (M-1s-1), for each compound. kinact/KI values are reported as
29 mean ± SD of the slope based on a linear fit model, n = 2 or 3. For n = 2 data, errors
30 are reported as standard errors of fit, as calculated in Prism 10. For n = 3 data, errors […]

TRIM25 PRYSPRY [2] = target: T1, TRIM25 PRYSPRY; assay: Intact protein LCMS covalent labelling of recombinant TRIM25 PRYSPRY; format: binding; conditions: 4 °C, 24 h
Procedure: 1 resin (ThermoFisher Scientific, 89964), eluted in 100 mM HEPES pH 7, 500 mM NaCl,
2 300 mM Imidazole, 5% glycerol, 1 mM TCEP, and stored at -80 °C.
5 into a pET49 vector with a His6-HRV-3C (Human Rhinovirus) tag and expressed in
6 BL21 E.coli cells (Agilent Technologies; 230132), with induction at 18 °C overnight by
7 addition of isopropyl β-D-1-thiogalactopyranoside (0.5 mM). Cells were harvested by
8 centrifugation at 4000 rpm in a Beckman J6-M1 rotor for 30 min at 4 °C, the
9 supernatant was discarded and cell pellets were either immediately lysed, or stored at
10 -80°C. The protein was purified via His6-capture on HisPurTM Ni-NTA resin in buffer
11 50 mM HEPES pH 7.5, 300 mM NaCl, 0.5 mM TCEP, 20 mM imidazole, washed
12 extensively with both high salt buffer (50 mM HEPES pH 7.5, 1 M NaCl, 0.5 mM TCEP,
13 20 mM imidazole) and wash buffer (50 mM HEPES pH 7.5, 300 mM NaCl, 0.5 mM
14 TCEP, 20 mM imidazole) before elution in buffer 50 mM HEPES pH 7.5, 300 mM NaCl,
15 0.5 mM TCEP, 500 mM imidazole, and tag cleavage with HRV-3C protease. Cleaved
16 protein was further purified by ion exchange chromatography and size exclusion
17 chromatography into 20 mM HEPES pH 7.5, 150 mM NaCl, 0.5 mM TCEP, and stored
21 For the original chloroacetamide fragment screen, 0.25 μM TRIM25 PRYSPRY or
23 25 mM HEPES pH 7.5, 50 mM NaCl buffer. For intact protein liquid chromatography
24 mass spectrometry (LCMS) kinetic characterisation, 0.5 μM TRIM25 PRYSPRY was
25 used. For selectivity testing with recombinant ubiquitin system protein panel, 10 µM
27 7.5, 50 mM NaCl buffer. Samples were then diluted to 0.5 µM for TRIM25 PRYSPRY,
28 TRIM21 PRYSPRY, OTUD7B OTU, ZRANB1 OTU or 1 µM for TRIM2 NHL, UBCH5B,
29 UBC13K92A, UEV1A, OTUD4 OTU, before injection into the LCMS. For TRIM25
30 PRYSPRY mutants, and for labelling of heterobifunctional compounds, 10 µM protein
32 mM NaCl buffer, and samples were diluted to 1 µM protein before injection into the […]

[3] = buffer; cited from earlier work
[4] = fragment screen: fragment 50 μM, TRIM25 PRYSPRY […]

T1 sequence (Q14258 435-630): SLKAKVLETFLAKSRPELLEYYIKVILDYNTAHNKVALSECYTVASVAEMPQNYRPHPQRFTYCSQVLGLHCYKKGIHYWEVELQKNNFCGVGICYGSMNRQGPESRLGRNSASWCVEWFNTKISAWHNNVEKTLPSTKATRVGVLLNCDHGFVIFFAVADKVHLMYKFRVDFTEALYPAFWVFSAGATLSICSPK

N#Cc1cnccc1NC(=O)C1CCCN(C(=O)CCl)C1 (stereo not shown) [Compound 12]
kinact/KI (TRIM25 PRYSPRY [1]; purified compounds, mean ± SD, n = 3): 0.26 ± 0.01 M⁻¹ s⁻¹ | TRIM25 PRYSPRY labelling (%) (TRIM25 PRYSPRY [2]; purified compound 50 μM, TRIM25 PRYSPRY 10 μM): 51%

O=C(CCl)N1CCCN(C(=O)c2ccc(Cl)cc2)CC1 [Fragment 1]
TRIM25 PRYSPRY labelling (%) (TRIM25 PRYSPRY [2]; [4]): 55%

CCN1C(=O)C2CN(C(=O)CCl)CCN2C1=O (stereo not shown) [Fragment 2]
TRIM25 PRYSPRY labelling (%) (TRIM25 PRYSPRY [2]; [4]): 50%

NC(=O)C1CCCCN1C(=O)CCl (stereo not shown) [Fragment 3]
kinact/KI (TRIM25 PRYSPRY [1]; eight timepoints across 24 h, n = 2, mean ± SE of fit): 0.13 ± 0.01 M⁻¹ s⁻¹ | TRIM25 PRYSPRY labelling (%) (TRIM25 PRYSPRY [2]; [4]): 39%

C=CC(=O)Nc1cc(Nc2nccc(-c3cn(C)c4ccccc34)n2)c(OC)cc1N(C)CCN(C)C [osimertinib]
GSH t1/2 [3]: 1.3 h
